Laboratory results taken from patent publication US4215069A, “Arylthiovinylcyclopropanecarboxylate intermediates” (FMC Corporation, priority 1979, dated 1980).

How the values were obtained:
Assay type in all cases: in vivo
[1] = system: milkweed bug (Oncopeltus faciatus [Dallas]); experiment: Initial contact activity against milkweed bug (percent kill); conditions: 72 hours exposure, read-out: Percent Kill MWB, initial activity
Protocol: (§1) The test compound was dissolved in a small amount of acetone, and the acetone solution was dispersed in water containing one drop of isooctylphenyl polyethoxyethanol to make a solution having 1250 ppm (w/w) active ingredient. Aliquots of this solution were diluted with an appropriate amount of water to provide solutions containing various concentrations of active ingredient. Test organisms and techniques were as follows: the activity against Mexican bean beetle (Epilachna varivestis Muls.) and southern armyworm (Spodoptera eridania [Cram.]) was evaluated by dipping the leaves of pinto bean plants into the test solution and infesting the leaves with the appropriate immature-form insects when the foliage had dried. The activity against the pea aphid (Acyrthosiphon pisum [Harris]) was evaluated on broad bean plants whose leaves were dipped before infestation with adult aphids. The activity against twospotted spider mites (Tetranychus urticae Koch) was evaluated on pinto bean plants whose leaves were dipped after infestation with adult mites. The activity against the milkweed bug (Oncopeltus faciatus [Dallas]) was evaluated by spraying the test solutions into glass dishes or jars containing the adult insects. Following application of the compound and infestation the tests were maintained in a holding room at 80° F. and 50% relative humidity for an exposure period of 72 hours. At the end of this time the dead and living insects or mites were counted and the percent kill was calculated. Results of these tests are summarized in Table I. Most of the compounds tested were active against all the insects.

[2] = system: twospotted spider mites (Tetranychus urticae Koch); experiment: Initial contact activity against twospotted spider mite (percent kill); conditions: 72 hours exposure, read-out: Percent Kill SM, initial activity
Protocol: as §1

[3] = system: pea aphid (Acyrthosiphon pisum [Harris]); experiment: Initial contact activity against pea aphid (percent kill); conditions: 72 hours exposure, read-out: Percent Kill PA, initial activity
Protocol: as §1

[4] = system: Mexican bean beetle (Epilachna varivestis Muls.); experiment: Initial contact activity against Mexican bean beetle (percent kill); conditions: 72 hours exposure, read-out: Percent Kill MBB, initial activity
Protocol: as §1

[5] = system: southern armyworm (Spodoptera eridania [Cram.]); experiment: Initial contact activity against southern armyworm (percent kill); conditions: 72 hours exposure, read-out: Percent Kill AW, initial activity
Protocol: as §1

## CC1(C)C(C=CSc2ccc(F)cc2)C1C(=O)OCc1cccc(Oc2ccccc2)c1 (mixture of isomers) [Example 5, 3-phenoxybenzyl cis,trans-3-[2-(E,Z)-(4-fluorophenylthio)ethenyl]-2,2-dimethylcyclopropanecarboxylate]
[1]
  mortality at 78 ppm: 0%
  mortality at 312 ppm: 5%
  mortality at 1250 ppm: 15%
[2]
  mortality at 78 ppm: 0%
  mortality at 312 ppm: 0%
  mortality at 1250 ppm: 0%
[3]
  mortality at 78 ppm: 0%
  mortality at 312 ppm: 45%
  mortality at 1250 ppm: 35%
[4]
  mortality at 20 ppm: 33%
  mortality at 78 ppm: 35%
  mortality at 312 ppm: 95%
[5]
  mortality at 78 ppm: 0%
  mortality at 312 ppm: 0%
  mortality at 1250 ppm: 7%

## CC1(C)C(C=CSc2ccc(F)cc2)C1C(=O)OC(C#N)c1cccc(Oc2ccccc2)c1 (mixture of isomers) [Example 6, α-cyano-3-phenoxybenzyl cis,trans-3-[2-(E,Z)-(4-fluorophenylthio)ethenyl]-2,2-dimethylcyclopropanecarboxylate]
[1]
  mortality at 78 ppm: 5%
  mortality at 312 ppm: 38%
  mortality at 1250 ppm: 100%
[2]
  mortality at 78 ppm: 0%
  mortality at 312 ppm: 0%
  mortality at 1250 ppm: 0%
[3]
  mortality at 78 ppm: 0%
  mortality at 312 ppm: 10%
  mortality at 1250 ppm: 100%
[4]
  mortality at 20 ppm: 68%
  mortality at 78 ppm: 94%
  mortality at 312 ppm: 100%
[5]
  mortality at 78 ppm: 0%
  mortality at 312 ppm: 0%
  mortality at 1250 ppm: 56%

## CC1(C)C(C=C(Cl)Sc2ccccc2)C1C(=O)OC(c1cccc(Oc2ccccc2)c1)C(F)(F)F (mixture of isomers) [Example 7, α-trifluoromethyl-3-phenoxybenzyl cis,trans-3-[2-(E,Z)-chloro-2-phenylthioethenyl]-2,2-dimethylcyclopropanecarboxylate]
[1]
  mortality at 78 ppm: 5%
  mortality at 312 ppm: 32%
  mortality at 1250 ppm: 100%
[2]
  mortality at 1250 ppm: 62%
[3]
  mortality at 78 ppm: 94%
  mortality at 312 ppm: 100%
  mortality at 1250 ppm: 100%
[4]
  mortality at 20 ppm: 90%
  mortality at 78 ppm: 100%
  mortality at 312 ppm: 100%
[5]
  mortality at 78 ppm: 0%
  mortality at 312 ppm: 0%
  mortality at 1250 ppm: 0%

## CC1(C)C(C=C(Cl)Sc2ccc(F)cc2)C1C(=O)OC(C#N)c1cccc(Oc2ccccc2)c1 (mixture of isomers) [Example 8, α-cyano-3-phenoxybenzyl cis,trans-3-[2-(E,Z)-chloro-2-(4-fluorophenylthio)ethenyl]-2,2-dimethylcyclopropanecarboxylate]
[1]
  mortality at 78 ppm: 75%
  mortality at 312 ppm: 100%
  mortality at 1250 ppm: 100%
[2]
  mortality at 1250 ppm: 100%
[3]
  mortality at 78 ppm: 46%
  mortality at 312 ppm: 94%
  mortality at 1250 ppm: 93%
[4]
  mortality at 20 ppm: 100%
  mortality at 78 ppm: 100%
  mortality at 312 ppm: 100%
[5]
  mortality at 78 ppm: 40%
  mortality at 312 ppm: 80%
  mortality at 1250 ppm: 90%

## CC1(C)C(C=C(Cl)Sc2ccc(Cl)cc2)C1C(=O)OCc1cccc(Oc2ccccc2)c1 (mixture of isomers) [Example 9, 3-phenoxybenzyl cis,trans-3-[2-(E,Z)-chloro-2-(4-chlorophenylthio)ethenyl]-2,2-dimethylcyclopropanecarboxylate]
[1]
  mortality at 78 ppm: 0%
  mortality at 312 ppm: 70%
  mortality at 1250 ppm: 90%
[2]
  mortality at 1250 ppm: 0%
[3]
  mortality at 78 ppm: 71%
  mortality at 312 ppm: 100%
  mortality at 1250 ppm: 100%
[4]
  mortality at 20 ppm: 100%
  mortality at 78 ppm: 100%
  mortality at 312 ppm: 100%
[5]
  mortality at 78 ppm: 0%
  mortality at 312 ppm: 0%
  mortality at 1250 ppm: 20%

## CC1(C)C(C=C(Br)Sc2ccccc2)C1C(=O)OCc1cccc(Oc2ccccc2)c1 (mixture of isomers) [Example 10, 3-phenoxybenzyl cis,trans-3-[2-(E,Z)-bromo-2-phenylthioethenyl]-2,2-dimethylcyclopropanecarboxylate]
[1]
  mortality at 78 ppm: 5%
  mortality at 312 ppm: 71%
  mortality at 1250 ppm: 100%
[2]
  mortality at 1250 ppm: 81%
[3]
  mortality at 78 ppm: 24%
  mortality at 312 ppm: 94%
  mortality at 1250 ppm: 95%
[4]
  mortality at 20 ppm: 72%
  mortality at 78 ppm: 95%
  mortality at 312 ppm: 94%
[5]
  mortality at 78 ppm: 0%
  mortality at 312 ppm: 44%
  mortality at 1250 ppm: 100%
